The term Cmax denotes the highest concentration seen after dosing. Usually Tmax stands for the time from dosing to the highest level.

SMILES strings stand for the structures. Where two headings read alike, the source gives them in different places.

One series concerns APP/PS1 mutant mice. Nature of the series: HFS-induced hippocampal LTP in WT and APP/PS1 mice after in vivo treatment. On the set-up: species or system mouse. To be noted: Rhy oral 50 mg·kg−1·day−1 for 3 weeks. The source says:
APP/PS1 double-transgenic mice were obtained from Jackson Laboratory (B6C3-Tg[APPswe, PSEN1dE9]85Dbo/J)^66. These mice were generated by incorporating a human/murine APP construct bearing the Swedish double mutation and the exon-9-deleted PSEN1 mutation (APPswe+PSEN1/dE9). APP transgenic mice (Tg2576) expressing a double mutant of human AβPP (Lys^670→Asn^670, Met^671→Leu^671) were also used^31. Both sexes were used for experiments, and all mice used in this study were produced by the Animal Care Facility of The Hong Kong University of Science and Technology. The genotype was confirmed by polymerase chain reaction analysis of tail biopsies. Four to five mice of the same sex were housed in a cage with food and water ad libitum with a 12-hour light/dark cycle.
To investigate the effect of blocking EphA4 signaling by KYL peptide in AD mice, 4-5-month-old AD transgenic mice were implanted with Alzet mini-osmotic pumps, model 1004, pumping its contents at 0.11 μL/h for 28 days. Pumps were loaded with either 0.23 μg/μL KYL peptide (17 μg) or vehicle solvent in artificial cerebrospinal fluid (CSF). The mini-osmotic pumps were adjusted intracerebroventricularly in the right hemisphere. EphA4 in the CA1 regions of APP/PS1 mice was knocked down by injecting vesicular stomatitis virus glycoprotein G-pseudotyped lentiviral particles with pFUGW-shEphA4 bilaterally into the corresponding regions as described previously^58.
For LTP recordings, mouse brains were immediately dissected after sacrifice and soaked in ice-cold 95% O2/5% CO2 (aCSF)^58. Brain slices (300 μm thick) were prepared using a vibrating tissue slicer (HM650V; Thermo), and soaked in oxygenated buffer for 2 h at 32° C. […] For treatment with EphA4 inhibitors, the slices were pretreated with peptides or chemicals for 1 h before application of Aβ. fEPSPs were recorded using a MED64 multichannel recording system, and the data were collected from the dendritic layer of area CA1 at a sampling rate of 10 kHz. For each slice, the baseline stimulus intensity was set at the level that elicited ˜50% of the maximum fEPSP response determined according to the input-output curve. […] The magnitude of LTP was quantified as a percentage change in the fEPSP slope (10%-90%) taken during the 60-min interval after LTP induction.
WT and APP/PS1 mutant (Tg) mice were orally administered with corylin ([…]) by daily gavage for 3-4 weeks prior to LTP measurements. LTP induced by 3 trains of HFS (100 Hz for 1 s delivered 30 s apart) in the CA1 region of the SC pathway of the hippocampus was measured. The magnitude of LTP was quantified as the percentage change in the fEPSP slope (10-90%) taken during the 60-min interval after LTP induction.

The nature of series [1]: Blood and brain penetration assay after single oral administration. The class given is in vivo, mouse. To be noted: for half-life: C57Bl/6, mouse, po, 50 mg/kg. The method, then:
Five microliters of sample was injected and eluted by the following program at the flow rate of 0.6 ml/min: 0-4.0 min, 10˜35% ACN; 4.0-4.1 min, 100% ACN; 7.0-7.1 min, 100-10% ACN, 7.1-10 min, 10% ACN. Detection of Rhy was carried out with the positive ionization mode. The ESI conditions were as follows: declustering potential 120 V, entrance potential 10 V, collision cell exit potential 12 V, collision energies 38 V, curtain gas 50 (arbitrary units), collision gas 10 (arbitrary units), ion spray voltage […], source temperature 500° C., ion source gas 1:45 (arbitrary units), ion source gas 2:60 (arbitrary units).
Male C57Bl/6 mice (16-week-old) were obtained from the Hong Kong University of Science and Technology (HKUST) Animal Care Facility and acclimatized in the laboratory a week before the study. […] The procedures in this study were approved by HKUST Animal Ethics Committee and conducted in accordance with the Code of Practice and Use of Animals for Experimental Purpose.
Plasma was obtained by centrifuging the blood at 3,800×g at 4° C. for 10 min. Mouse brains were collected after a 30-min cardiac perfusion with 0.9% saline. Whole mouse brain with the addition of 80 μL 0.9% saline was subjected to homogenization for 10 s (Precellys Minilys) at 4000 rpm with ceramic beads. […] Samples were centrifuged at 12,000×g at 4° C. for 10 min. The supernatants were transferred to a new tube and the remaining samples were subjected to another extraction. The supernatants obtained from the two extractions were pooled and evaporated to dryness. The dried samples were dissolved in 0.3 mL methanol, vortexed for 30 s followed by ultrasonication for 5 min and centrifuged at 17,900×g for 5 min. The supernatant (80 μL) was transferred into vial for UPLC-MS/MS analysis.

The test system of a further series is APP/PS1 mice. Kind of series: Adult neurogenesis (Ki67 staining) in hippocampus of APP/PS1 mice. As to conditions: Rhy oral 50 mg/kg for over three months, versus control-treated mice. The class given is in vivo, mouse. The source says:
The mouse brains were sectioned and stained with Ki67 antibody, which labelled all cells in the cell cycle, but not those differentiated progenitors and newly born neurons.

In the next series the test system is NMDA receptors. Nature of the series: NMDA current in hippocampal neurons. Type of series: cell-based. As to conditions: data not shown.
Series [2] concerns glutamate-induced Ca2+ influx. As to conditions: subsequent study; cited from earlier work.
[3] abbreviates: mouse, single oral 50 mg/kg, rounded.

As for `CC[C@H]1CN2CC[C@]3(C(=O)Nc4ccccc43)[C@@H]2C[C@@H]1/C(=C\OC)C(=O)OC` [Rhy, methyl (7β,16E,20α)-16-(methoxymethylene)-2-oxocorynoxan-17-oate], the “mean fEPSP slope, last 10 min after LTP induction” value in the series on APP/PS1 mutant mice (APP/PS1 (Tg) mice, Tg control 147.6±3.5%) is recorded as 198.1±8.9%; in the series on APP/PS1 mutant mice (WT mice, WT control 194.0±7.0%), 180.5±7.7%. For the same compound, the “detection in plasma and brain” value in series [1] (10 min after single oral 50 mg/kg) is given as “readily detected”. The “level of Rhy as percentage of Cmax” value in series [1] (after 3 h of administration, in both plasma and brain) was determined as 10%. Besides, the half-life in series [1] (male, brain, mouse, single oral 50 mg/kg, perfused brain, read-out: t1/2 in brain (converted)) was 107 ± 27.3 min; in series [1] (male, brain, mouse, single oral 50 mg/kg, rounded, read-out: t1/2 in brain (converted)) it was roughly 120 min; in series [1] (male, plasma, mouse, single oral 50 mg/kg, read-out: t1/2 in plasma) it was 81.1 ± 12.1 min. In addition, the concentration in series [1] (male, C57Bl/6, plasma, mouse, single oral 50 mg/kg) peaked (Cmax) at 583 ± 32.9 ng/mL. Besides, the Tmax was 30.8 min in series [1] (male, C57Bl/6, plasma, mouse, single oral 50 mg/kg, read-out: Tmax in plasma (converted)) and 55 min in series [1] (male, C57Bl/6, mouse, single oral 50 mg/kg, perfused brain, read-out: Tmax in brain (converted)). The “blood-brain barrier passage” value in series [1] (mouse, oral administration) is “can pass through the blood-brain barrier”. Besides, the Cmax in brain in series [1] (mouse, single oral 50 mg/kg, perfused brain) is listed as 442.73±27.38 ng/brain. For the same compound, in series [1] (setting [3]), the “time at which brain level peaked” value is reported as roughly 1 h. Also, the “time at which plasma concentration peaked” value in series [1] (setting [3]) is roughly 0.5 h. For the same compound, the “time at which plasma concentration was reduced by 50%” value in series [1] (setting [3]) is recorded as roughly 1.5 h. Also, the “number of Ki-67+ neural progenitors in dentate gyrus” value in the series with APP/PS1 mice was “increased the number of Ki-67+ neural progenitors”. In the series with NMDA receptors, the “inhibition of NMDA current in hippocampal neurons” value is recorded as “unable to inhibit NMDA current”. For the same compound, the “inhibition of glutamate-induced Ca2+ influx” value in series [2] was “nor inhibits the glutamate-induced Ca^2+ influx”.

The values above are taken from patent publication US9629830B2, “EphA4 inhibitors as neuroprotective agents” (The Hong Kong University of Science and Technology, priority 2013, dated 2017).
